We go through one substance from patent US9540289B2, “Chelated compositions and methods of making and using the same” (Scott G. Williams, LLC, priority 2010, dated 2017).

A short description of this data set: Titration of 1% w/w solution with 0.5 M NaOH until precipitate forms. The class given is physicochemical. The protocol:
The finished material was tested by titration with 0.5 M NaOH. A 1% w/w solution was made of the material by placing 1.0042 g in a 100 mL of deionized water. 0.5 M NaOH was then titrated into this solution. The material absorbed 23.8 mL of the 0.5 M NaOH while the solution pH rose from about 2 to about 10.2, whereupon a precipitate formed.

With “zinc EDTA chelate [pure zinc EDTA chelate]”, the “0.5 M NaOH absorbed until a precipitate formed” value (1% w/w solution in 100 mL deionized water, titrated with 0.5 M NaOH) was 5.8 mL. The “solution pH at which a precipitate formed” value (1% w/w solution titrated with 0.5 M NaOH) was “above 10.2”.
